Assay results: US8202910B2 (Sequella, Inc., priority 2006, dated 2012)
≈ marks a conversion by molar mass, not a printed value. Where “and” joins values, the source holds several entries; their conditions need not be identical. Identical values can stand only once. Like-named read-outs stand apart in the source and are kept apart here.

Key:
[1] = system: H37Rv strain of Mycobacterium tuberculosis; assay: microbe, parasite or virus in culture; assay type: cell-based
[2] = system: M. tuberculosis H37Rv; assay: MIC by BACTEC 460; assay type: cell-based, Mycobacterium tuberculosis; conditions: Mycobacterium tuberculosis, H37RV; read-out: MIC (BACTEC)
[3] = Maximum tolerated dose, one-time gavage dose in mice; assay type: in vivo
Experimental: […] Each dose of each compound consisted of one group of 3 mice. Monitoring of the mice was done twice a day for the duration of the experiment. […] The MTD (mg/kg) is the highest dose that results in no lethality/tissue abnormality.
• 1. […] The compounds are dissolved in the appropriate concentration of ethanol in distilled water and administered in a volume of 0.2 ml per mouse. • 2. Observation of mice: Mice will be observed 4 and 6 hours post administration, then twice daily for one week. Survival and body weight of mice will be closely monitored throughout the study. • 3. […] Critical organs will be aseptically removed and observed; tissues from the liver, heart, and kidneys are extracted and placed into 10% formalin solution. These fixed tissues are sectioned and examined for abnormalities resulting from drug toxicity.

[4] = system: M. tuberculosis H37Rv; assay: In vivo efficacy, mice infected i.v. with M. tuberculosis, CFU in spleen and lungs; design: species or system C57BL/6 mice
[5] = system: M. tuberculosis; assay: Minimum Bactericidal Concentration (MBC); assay type: cell-based; conditions: Mycobacterium tuberculosis
[6] = target: T1, dopamine receptor D2S (Homo sapiens, UniProt P14416); assay: CEREP receptor binding, D2S; conditions: tested at 10 μM; read-out: inhibition of control specific binding
T1 construct: CEREP (contract testing)
Text: (§1) In vitro testing for safety pharmacology and early ADMET (Absorption, Distribution, Metabolism, Excretion, Toxicity) studies of compound 109 were contracted out to CEREP (15318 NE 95th Street, Redmond, Wash., 98052, USA www.cerep.com) under a service agreement and included evaluation of inhibitory binding to a panel of 27 standard receptors and three transporters (See FIG. 60 (Table 31) and FIG. 61 (Table 32)) which included: adenosine receptors (A1 and A2A), adrenergic receptors (alpha 1, alpha 2, beta 1), angiotensin II receptor (AT1), benzodiazapene receptor (BZD), bradykinin receptor (B2), cholecystokinin receptor (CCK1), dopamine receptors (D1, D2S), endothelin receptor (ETA), GABA receptor (GABA), glutamate receptor (NMDA), histamine receptor (H1 central), melanocortin receptor (MC4), muscarinic receptor (M, non-selective), neurokinin receptor (NK1), neuropeptide Y receptor (Y), nicotinic receptor (neuronal, alpha-BGTX-insensitive), opiate receptor (non-selective opiate), orphanin receptor (ORL1), phencyclidine receptor (PCP), serotonin receptor (5-HT), sigma receptor (sigma non-selective), steroid receptor (glucocorticoid receptor, GR), and NE, DA, and 5-HT transporters.
(§2) The specific ligand binding to the receptors is defined as the difference between the total binding and the nonspecific binding determined in the presence of an excess of unlabelled ligand.

[7] = system: muscarinic receptor (M, non-selective); assay: CEREP receptor binding, muscarinic M; conditions: tested at 10 μM
Text: as §1, §2

[8] = target: T2, Norepinephrine NE transporter (Homo sapiens, UniProt P23975); assay: CEREP transporter binding, NE; conditions: tested at 10 μM; read-out: inhibition of control specific binding
T2 construct: CEREP (contract testing)
Text: as §1, §2

[9] = target: T3, Dopamine DA transporter (Homo sapiens, UniProt Q01959); assay: CEREP transporter binding, DA; conditions: tested at 10 μM; read-out: inhibition of control specific binding
T3 construct: CEREP (contract testing)
Text: as §1, §2

[10] = system: M. tuberculosis [MTB]; assay: Spectrum of activity MIC, BACTEC 460 TB system; assay type: cell-based; conditions: Mycobacterium tuberculosis
[11] = system: M. avium complex (MAC); assay: Spectrum of activity MIC, MOTT, agar proportion method; assay type: cell-based; conditions: Mycobacterium avium; three isolates
[12] = system: RIF^R M. tuberculosis isolate 3185; assay: microbe, parasite or virus in culture; assay type: cell-based
[13] = system: RIF^R M. tuberculosis isolate 2482; assay: microbe, parasite or virus in culture; assay type: cell-based; conditions: Mycobacterium tuberculosis, read-out: MIC (BACTEC)
[14] = system: M. tuberculosis H37Rv (Pasteur); assay: Rapid in vivo model of TB, body weight of infected mice; design: species or system C3H female mice
[15] = system: M. avium; assay: Spectrum (unpublished data); assay type: cell-based

T1 sequence (P14416 1-414 isoform P14416-2): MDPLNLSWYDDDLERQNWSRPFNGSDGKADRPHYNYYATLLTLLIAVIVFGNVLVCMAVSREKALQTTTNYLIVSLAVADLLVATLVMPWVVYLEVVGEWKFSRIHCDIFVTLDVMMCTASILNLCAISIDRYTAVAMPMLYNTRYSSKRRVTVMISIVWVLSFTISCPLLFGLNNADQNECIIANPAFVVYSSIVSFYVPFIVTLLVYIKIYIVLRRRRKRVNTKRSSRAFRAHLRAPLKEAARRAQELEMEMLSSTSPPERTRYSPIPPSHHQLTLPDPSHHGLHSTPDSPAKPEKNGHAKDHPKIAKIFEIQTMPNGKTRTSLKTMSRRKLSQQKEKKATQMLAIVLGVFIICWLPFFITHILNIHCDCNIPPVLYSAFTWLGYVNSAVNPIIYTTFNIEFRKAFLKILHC
T2 sequence (P23975 whole entry): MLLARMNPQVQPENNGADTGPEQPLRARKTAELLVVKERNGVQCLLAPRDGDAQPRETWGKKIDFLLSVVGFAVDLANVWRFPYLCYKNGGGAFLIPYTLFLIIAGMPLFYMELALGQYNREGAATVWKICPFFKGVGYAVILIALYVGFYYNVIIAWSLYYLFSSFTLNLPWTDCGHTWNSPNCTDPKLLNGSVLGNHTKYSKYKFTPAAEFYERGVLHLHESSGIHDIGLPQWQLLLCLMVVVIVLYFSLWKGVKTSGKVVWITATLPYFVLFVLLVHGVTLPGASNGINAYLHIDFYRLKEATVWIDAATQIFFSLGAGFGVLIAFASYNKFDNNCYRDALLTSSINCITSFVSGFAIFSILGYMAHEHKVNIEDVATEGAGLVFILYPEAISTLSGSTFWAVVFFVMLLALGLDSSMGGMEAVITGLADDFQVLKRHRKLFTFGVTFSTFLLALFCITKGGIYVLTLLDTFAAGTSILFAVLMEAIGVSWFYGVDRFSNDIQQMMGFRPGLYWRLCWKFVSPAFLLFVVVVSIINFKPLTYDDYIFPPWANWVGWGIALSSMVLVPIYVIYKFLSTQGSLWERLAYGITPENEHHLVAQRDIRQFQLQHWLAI
T3 sequence (Q01959 whole entry): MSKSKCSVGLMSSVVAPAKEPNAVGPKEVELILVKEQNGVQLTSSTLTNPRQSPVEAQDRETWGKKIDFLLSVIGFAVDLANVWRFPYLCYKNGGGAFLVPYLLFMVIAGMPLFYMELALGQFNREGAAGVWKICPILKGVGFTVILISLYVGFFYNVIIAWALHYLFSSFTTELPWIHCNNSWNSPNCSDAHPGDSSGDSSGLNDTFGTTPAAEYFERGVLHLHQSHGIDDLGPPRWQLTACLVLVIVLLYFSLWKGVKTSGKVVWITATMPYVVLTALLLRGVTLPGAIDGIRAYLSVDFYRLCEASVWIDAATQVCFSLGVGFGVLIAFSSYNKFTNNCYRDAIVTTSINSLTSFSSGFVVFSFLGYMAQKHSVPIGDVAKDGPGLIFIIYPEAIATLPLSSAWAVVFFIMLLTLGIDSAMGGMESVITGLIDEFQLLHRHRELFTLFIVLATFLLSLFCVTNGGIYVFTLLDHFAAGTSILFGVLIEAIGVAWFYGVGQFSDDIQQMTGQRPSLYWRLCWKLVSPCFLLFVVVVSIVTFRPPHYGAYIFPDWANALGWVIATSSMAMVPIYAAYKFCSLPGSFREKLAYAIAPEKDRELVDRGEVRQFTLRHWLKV

## CC(C)=CCC/C(C)=C/CNCCNC1C2CC3CC(C2)CC1C3 (stereo not shown) [Compound 109, N-Geranyl-N′-(2-adamanthyl)ethane-1,2-diamine]
[1]
  MIC: 1.953 µM and 1.95 µM
[1]; Mycobacterium tuberculosis, H37RV, Table 10, from uM and MW, read-out: MIC
  MIC: 0.879 µg/mL
[1]; Mycobacterium tuberculosis, H37RV, Table 10, read-out: MIC
  MIC: 1.95 µM
[1]; Mycobacterium tuberculosis, H37RV, Table 15, read-out: MIC
  MIC: 1.56 µM
[1]; Mycobacterium tuberculosis, H37RV, previously determined, read-out: MIC by micro-broth dilution
  MIC: 0.2 µM and 0.11 µg/mL
[1]; Mycobacterium tuberculosis, H37RV, read-out: MIC
  MIC: 1.95 µM
[2]
  MIC: 0.32 µg/mL (≈ 0.968 µM)
[3]; 109 as HCl salt at 800 mg/kg, day 1
  Mice: 3
[3]; 109 as HCl salt at 800 mg/kg, day 2
  Mice: 2/1
[3]; 109 as HCl salt at 800 mg/kg, day 3
  Mice: 1/1
[3]; 109 as HCl salt at 800 mg/kg, day 4
  Mice: 1
[3]; 109 as HCl salt at 800 mg/kg, day 5
  Mice: 1
[3]; 109 as HCl salt at 800 mg/kg, day 6
  Mice: 1
[3]; 109 as HCl salt at 800 mg/kg, day 7
  Mice: 1
[3]; 109 as HCl salt at 800 mg/kg, 800 mg/kg
  Day of death: 2 and 3
[3]; 109 as TFA salt at 800 mg/kg, day 1
  Mice: 1
[3]; 109 as TFA salt at 800 mg/kg, day 2
  Mice: 1
[3]; 109 as TFA salt at 800 mg/kg, day 3
  Mice: 1
[3]; 109 as TFA salt at 800 mg/kg, day 4
  Mice: 1
[3]; 109 as TFA salt at 800 mg/kg, day 5
  Mice: 1
[3]; 109 as TFA salt at 800 mg/kg, day 6
  Mice: 1
[3]; 109 as TFA salt at 800 mg/kg, day 7
  Mice: 1
[3]; 109 at 100 mg/kg, day 1
  Mice: 3
[3]; 109 at 100 mg/kg, day 2
  Mice: 3
[3]; 109 at 100 mg/kg, day 3
  Mice: 3
[3]; 109 at 100 mg/kg, day 4
  Mice: 3
[3]; 109 at 100 mg/kg, day 6
  Mice: 3
[3]; 109 at 100 mg/kg, day 7
  Mice: 3
[3]; 109 at 300 mg/kg, day 1
  Mice: 3
[3]; 109 at 300 mg/kg, day 2
  Mice: 3
[3]; 109 at 300 mg/kg, day 3
  Mice: 3
[3]; 109 at 300 mg/kg, day 4
  Mice: 3
[3]; 109 at 300 mg/kg, day 6
  Mice: 3
[3]; 109 at 300 mg/kg, day 7
  Mice: 3
[3]; 109 at 600 mg/kg, day 1
  Mice: 3
[3]; 109 at 600 mg/kg, day 2
  Mice: 3
[3]; 109 at 600 mg/kg, day 3
  Mice: 3
[3]; 109 at 600 mg/kg, day 4
  Mice: 3
[3]; 109 at 600 mg/kg, day 6
  Mice: 3
[3]; 109 at 600 mg/kg, day 7
  Mice: 3
[3]; 109 at 1000 mg/kg, day 1
  Mice: 3
[3]; 109 at 1000 mg/kg, day 2
  Mice: 2
[3]; 109 at 1000 mg/kg, day 3
  Mice: 2
[3]; 109 at 1000 mg/kg, day 4
  Mice: 1
[3]; 109 at 1000 mg/kg, day 6
  Mice: 0
[3]; female, C57BL/6, mouse, in vivo, po, one-time dose by gavage
  MTD at 1 week: 600 mg/kg
[3]; mice surviving one week
  changes in organs: No visible changes in organs
[3]; one-time dose, two of 3 mice died within 3 days
  fatal dose: 800 mg/kg
[4]; 0.1 mg/kg after 4 weeks of therapy, 5×10^6 CFU
  difference with untreated control, spleen and lung: minimal but sufficient difference with untreated control
[4]; 1 mg/kg and 10 mg/kg, 5×10^5 CFU, chemotherapy from day 20
  activity in the spleen compared with EMB: equal to that of EMB at 100 mg/kg
[4]; 10 mg/kg after 4 and 6 weeks, 5×10^5 CFU
  activity in the lung compared with EMB: more effective than EMB at 100 mg/kg
[4]; 10 mg/kg and 25 mg/kg, shorter model, 5×10^6 CFU, 4 weeks
  activity in spleen and lung compared with EMB: equal to that of EMB at 100 mg/kg
[4]; doses 1 and 10 mg/kg, orally by gavage
  activity (CFUs in spleen and lungs) compared with ethambutol: equal to that of ethambutol at 100 mg/kg
[5]
  MBC: 0.313 µg/mL (≈ 0.947 µM)
[6]
  inhibition at 10 µM: 73%
[7]
  inhibition of control specific binding: 96%
[8]
  inhibition at 10 µM: 87%
[9]
  inhibition at 10 µM: 63%
[10]
  MIC: 0.25 to 0.5 µg/mL (≈ 0.756 to 1.51 µM)
[11]
  MIC: 8 to 32 µg/mL (≈ 24.2 to 96.8 µM)
[12]; Mycobacterium tuberculosis, read-out: MIC (BACTEC)
  MIC: 0.32 µg/mL (≈ 0.968 µM)
[12]; isolate 3185
  MIC (BACTEC): 0.32 µg/mL (≈ 0.968 µM)
[13]
  MIC: 0.32 µg/mL (≈ 0.968 µM)
[14]; SQ109 10 mg/kg + RIF 2 mg/kg orally, 6 mice, by the 3 wk, uninfected control 24.5 g, untreated 17 g
  average body weight: 24.3 grams
[14]; SQ109 in combination with PZA (50 mg/kg)
  body weight of infected mice: slight improvement
[14]; compound 109 (10 mg/kg) in combination with Rifampicin (2 mg/kg)
  body weight of infected mice: comparable to non-infected controls
[14]; compound 109 (10 mg/kg) in combination with Rifampicin (2 mg/kg), listed as SQ109
  body weight of infected mice: fully prevented body weight loss
[14]; compound 109 in combination with EMB (10 mg/kg)
  body weight of infected mice: closer to placebo treated controls
[14]; compound 109 in combination with EMB (10 mg/kg), listed as SQ109
  body weight of infected mice: No effect
[14]; compound 109 in combination with INH (1 mg/kg)
  body weight of infected mice: comparable to non-infected controls
[14]; compound 109 in combination with INH (1 mg/kg), listed as SQ109
  body weight of infected mice: enhanced activity
[14]; compound 109 in combination with Moxi (10 mg/kg)
  body weight of infected mice: closer to placebo treated controls
[14]; compound 109 in combination with Moxi (10 mg/kg), listed as SQ109
  body weight of infected mice: antagonistic effect
[14]; single drug alone (SQ109 10 mg/kg; RIF 2 mg/kg), by the 3 wk
  average weight: 21.3 g
[14]; single drug alone (SQ109 10 mg/kg; Rifampin 2 mg/kg)
  body weight of infected mice: closer to placebo treated controls
[15]
  activity: much less active
